Results reported in paper PMC5201331, “Subchronic Toxicities of HZ1006, a Hydroxamate-Based Histone Deacetylase Inhibitor, in Beagle Dogs and Sprague-Dawley Rats” (International Journal of Environmental Research and Public …, 2016).

System: Beagle dogs
Test: Subchronic toxicity test in Beagle dogs: organ weights
Assay type: in vivo
Experimental: HZ1006 was administered orally to dogs (four/sex/group) at doses of 80, 40, 20, 5 and 0 (control) mg/kg/day, and the dosage volume was 2 mL/kg. The dogs received test doses with the exact amounts on a weekly basis based on current body weights. […] The other dogs in the above groups were dissected on the planned days. For the other groups, half of the dogs were anatomized on d28 and the remaining half on d42.
After euthanasia, the following organs or tissues were isolated from the dogs and rats: skin, abnormal lesions, spleen, mammary glands, jejunum, pancreas, ileum, duodenum, stomach, colon, cecum, lymph nodes, mesenteric salivary glands, liver, submandibular lymph nodes, thymus, sternum, lungs, heart, esophagus, trachea, tongue, thyroid with parathyroid gland, sciatic nerve, aorta, femurs, skeletal muscle, pituitary gland, brain, kidneys, eyes, urinary bladder, adrenal glands, uterus, ovaries, testes, epididymis and prostate. The weights of the animal organs, such as the liver, spleen, heart, thymus, brain, lungs, adrenal glands, kidneys, uterus, ovaries, epididymis and testes, were tested using an electronic balance. The organs or tissues were fixed using 10% neutral buffered formalin and were then gradient dehydrated, embedded, sectioned, and stained with routine hematoxylin-eosin prior to histopathological observations.

[1] = dog ♂5 (80 mg/kg/day oral), d28
[2] = dog ♂23 (40 mg/kg/day oral), d28
[3] = dogs, 5 mg/kg/day oral, d42 (recovery)
[4] = dogs, 20 mg/kg/day oral, d42 (recovery)
[5] = dogs, 40 mg/kg/day oral, d42 (recovery)
[6] = dogs, 80 mg/kg/day oral, d42 (recovery)

## CCCCCCCNc1cc(/C=C/C(=O)NO)ccc1OCCN(CC)CC [HZ1006]
[1]
  Lung absolute weight: 135.9 g
  Lung relative weight: 13.39
[2]
  Lung absolute weight: 109.8 g
  Lung relative weight: 12.34
dogs, 5 mg/kg/day oral, d28
  Lung absolute weight: 72.7 ± 8.2 g
  Lung relative weight: 6.90 ± 0.90
  Testis absolute weight: 13.550 ± 0.494 g
  Testis relative weight: 1.23 ± 0.03
[3]
  Testis absolute weight: 14.050 ± 0.212 g
  Testis relative weight: 1.45 ± 0.04
dogs, 20 mg/kg/day oral, d28
  Lung absolute weight: 71.4 ± 12.6 g
  Lung relative weight: 6.96 ± 1.02
  Testis absolute weight: 13.953 ± 0.081 g
  Testis relative weight: 1.31 ± 0.26
[4]
  Lung absolute weight: 74.0 ± 8.8 g
  Lung relative weight: 7.37 ± 0.67
  Testis absolute weight: 12.179 ± 0.518 g
  Testis relative weight: 1.21 ± 0.01
dogs, 40 mg/kg/day oral, d28
  Lung absolute weight: 92.4 ± 15.4 g
  Lung relative weight: 9.87 ± 2.14
  Testis absolute weight: 6.631 ± 2.855 g
  Testis relative weight: 0.69 ± 0.24
[5]
  Lung absolute weight: 70.4 ± 5.0 g
  Lung relative weight: 7.10 ± 1.13
  Testis absolute weight: 9.400 ± 0.063 g
  Testis relative weight: 0.78 ± 0.21
dogs, 80 mg/kg/day oral, d28
  Lung absolute weight: 95.8 ± 35.3 g
  Lung relative weight: 9.87 ± 3.27
  Testis absolute weight: 5.660 ± 1.608 g
  Testis relative weight: 0.61 ± 0.23
[6]
  Lung absolute weight: 82.9 ± 6.8 g
  Lung relative weight: 8.49 ± 0.95
  Testis absolute weight: 6.017 ± 2.937 g
  Testis relative weight: 0.63 ± 0.31
